Data as given in US8501955B2, “Acetamide derivatives as glucokinase activators, their process and medicinal application” (Advinus Therapeutics Private Limited, priority 2007, dated 2013).
pEC50: −log10 of the molar value.

Biological target: T1, purified human recombinant GK (Homo sapiens, UniProt P35557)
T1 sequence (P35557 1-465): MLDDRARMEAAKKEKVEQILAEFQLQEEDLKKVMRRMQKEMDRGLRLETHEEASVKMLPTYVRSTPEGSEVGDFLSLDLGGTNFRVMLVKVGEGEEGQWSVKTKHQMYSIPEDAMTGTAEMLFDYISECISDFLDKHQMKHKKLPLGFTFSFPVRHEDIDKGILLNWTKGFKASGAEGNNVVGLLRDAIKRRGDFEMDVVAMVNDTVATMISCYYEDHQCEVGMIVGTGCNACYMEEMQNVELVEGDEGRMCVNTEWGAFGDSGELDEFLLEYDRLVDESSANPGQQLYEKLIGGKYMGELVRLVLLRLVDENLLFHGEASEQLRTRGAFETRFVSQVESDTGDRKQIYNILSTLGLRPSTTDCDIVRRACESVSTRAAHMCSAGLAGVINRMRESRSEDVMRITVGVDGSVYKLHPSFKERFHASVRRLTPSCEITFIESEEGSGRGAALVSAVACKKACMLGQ
Assay: Glucokinase activity assay (coupled enzymatic GK/G6PD assay, NADH absorbance at 340 nm)
Assay type: biochemical
Conditions: for pEC50: EC50 of % change in S0.5 of glucokinase for glucose, sigmoidal fit, read-out: EC50 (with respect to % ΔS0.5); for Emax: Emax of % change in S0.5, vehicle S0.5 = 0%, 0 mM glucose = 100%, read-out: % Emax (with respect to % ΔS0.5)
Description: The glucokinase (GK) assay is a coupled enzymatic assay. GK catalyzes the first step of glycolysis, the conversion of glucose to glucose-6-phosphate (G6P) in the presence of ATP. G6P in turn is converted by glucose-6-phosphate dehydrogenase (G6PD) to 6-phosphogluconate, a process that requires NAD, resulting in NADH formation. Since the GK-catalyzed step is the rate-limiting step of this coupled enzymatic process, the rate of accumulation of 6-phosphogluconate and NADH is directly proportional to the rate of glucose phosphorylation by GK. The rate of the GK-catalyzed reaction can therefore be measured by monitoring the increase in NADH absorbance at 340 nm.
The assay is carried out according to the protocol outlined in Hariharan et al (1997), Diabetes 46: 11-16. Briefly, the test compounds are incubated in a reaction mix containing 25 mM HEPES (pH 7.2), 10 mM MgCl2, 100 mM KCl, 5 mM ATP, 2 mM DTT, 0.5 mM NAD, 1 U/ml Leuconostoc mesenteroides G6PD, 0.3 U/ml of purified human recombinant GK, and different concentrations of glucose. Enzymatic activity is calculated from the initial reaction velocity, measured from the change in NADH absorbance as a function of time.
Compounds described in formula (I), in concentration ranges from 1.0 nM to […] are tested in the purified human recombinant glucokinase assay described above.
A compound is considered to be a glucokinase activator if it, in its testable range of concentrations, yields a higher rate of glucose phosphorylation than in its absence at a particular glucose concentration, for example at 5 mM glucose.
Compounds of general formula (I) are tested in the in vitro GK enzymatic assay to monitor dose-dependent effect on glucokinase activation (in kinetic mode), as described above, at various glucose concentrations. The S0.5 of glucokinase for glucose at different concentration of each compound of interest is calculated from the following modified version of the Michaelis-Menten equation, V=Vmax[S]^n/(S0.5^n+[S]^n), where [S] is the glucose concentration and n is the Hill coefficient (taken as 1.7 to account for the sigmoidal kinetics of glucokinase with respect to glucose). The S0.5 is plotted against the log of the compound concentration. The change in the S0.5 of glucokinase (ΔS0.5) for glucose is calculated by subtracting the S0.5 at each concentration of the compound from the S0.5 in the vehicle control. The ΔS0.5 is then normalized to a percent scale, where the S0.5 in the vehicle control is set to 0% and 0 mM glucose is set to 100%. The % ΔS0.5 is then plotted against the log of the compound concentration. The EC50 and Emax of % change in S0.5 is obtained from the sigmoidal fit of the data. Detailed protocol has been described in our copending application no. WO 2008/104994 which is incorporated herein by reference. Characterization data of some representative glucokinase activators of the present disclosure, which are illustrative but not limiting, are given in table 1 below.

| SMILES | pEC50 | Emax |
| --- | --- | --- |
| N#Cc1ccc(Oc2cnc(NC(=O)C(OC3CCOCC3)c3ccc(S(=O)(=O)C4CC4)cc3)s2)cc1 (stereo not shown) [Example A117, N-[5-(4-Cyano-phenoxy)-thiazol-2-yl]-2-(4-cyclopropanesulfonyl-phenyl)-2-(tetrahydro-pyran-4-yloxy)-acetamide] | 6.82 | 92% |
| Cn1ccc(NC(=O)C(Oc2ccc(F)cc2F)c2ccc(S(=O)(=O)C3CCCC3)cc2)n1 (stereo not shown) [Example A38, 2-(4-Cyclopentanesulfonylphenyl)-2-(2,4-difluorophenoxy)-N-(1-methyl-1H-pyrazol-3-yl)acetamide] | 6.41 | 95% |
| O=C(Nc1ncc(F)s1)C(Oc1ccc2[nH]ccc2c1)c1ccc(S(=O)(=O)C2CC2)cc1 (stereo not shown) [Example A28, 2-(4-Cyclopropanesulfonylphenyl)-N-(5-fluorothiazol-2-yl)-2-(1H-indol-5-yloxy)acetamide] | 6.19 | 90% |
| CC(C)Oc1ccc2nc(NC(=O)C(OC3CCOCC3)c3ccc(S(=O)(=O)C4CC4)cc3)sc2n1 (stereo not shown) [Example A82, 2-(4-Cyclopropanesulfonyl-phenyl)-N-(5-isopropoxy-thiazolo[5,4-b]pyridin-2-yl)-2-(tetrahydro-pyran-4-yloxy)-acetamide] | 6.62 | 94% |
| O=C(Nc1cnccn1)C(Oc1ccc(Cl)cc1F)c1ccc(S(=O)(=O)C2CC2)cc1 (stereo not shown) [Example A47, 2-(4-Chloro-2-fluorophenoxy)-2-(4-cyclopropanesulfonylphenyl)-N-pyrazin-2-yl-acetamide] | 5.92 | 90% |
| O=C(Nc1ncc(F)s1)C(Oc1ccc(F)cc1F)c1ccc(S(=O)(=O)C2CCCC2)cc1 (stereo not shown) [Example A11, 2-(4-Cyclopentanesulfonylphenyl)-2-(2,4-difluorophenoxy)-N-(5-fluoro-thiazol-2-yl)acetamide] | 6.96 | 95% |
| Cn1ccc(NC(=O)C(Oc2ccc(Cl)cc2F)c2ccc(S(=O)(=O)C3CC3)cc2)n1 (stereo not shown) [Example A46, 2-(4-Chloro-2-fluorophenoxy)-2-(4-cyclopropanesulfonylphenyl)-N-(1-methyl-1H-pyrazol-3-yl)acetamide] | 5.86 | 90% |
| O=C(Nc1nncs1)C(Oc1ccc(F)cc1F)c1ccc(S(=O)(=O)C2CCCC2)cc1 (stereo not shown) [Example A27, 2-(4-Cyclopentanesulfonylphenyl)-2-(2,4-difluorophenoxy)-N-[1,3,4]thiadiazol-2-yl-acetamide] | 5.90 | 90% |
| CC(=O)Nc1cccc(OC(C(=O)Nc2ncc(F)s2)c2ccc(S(=O)(=O)C3CC3)cc2)c1 (stereo not shown) [Example A29, 2-(3-Acetylaminophenoxy)-2-(4-cyclopropanesulfonylphenyl)-N-(5-fluoro-thiazol-2-yl)acetamide] | 6.23 | 90% |
| O=C(Nc1nccs1)C(Oc1ccc(Cl)cc1)c1ccc(S(=O)(=O)C2CCCC2)cc1 (stereo not shown) [Example A12, 2-(4-Chlorophenoxy)-2-(4-cyclopentanesulfonylphenyl)-N-thiazol-2-yl-acetamide] | 6.77 | 90% |
| O=C(Nc1ncc(F)s1)C(Oc1ccc(Cl)cc1F)c1ccc(S(=O)(=O)C2CC2)cc1 (stereo not shown) [Example A42, 2-(4-Chloro-2-fluorophenoxy)-2-(4-cyclopropanesulfonylphenyl)-N-(5-fluorothiazol-2-yl)acetamide] | 6.92 | 95% |
| Cc1cnc(NC(=O)C(Oc2ccc(Cl)cc2F)c2ccc(S(=O)(=O)C3CC3)cc2)s1 (stereo not shown) [Example A43, 2-(4-Chloro-2-fluorophenoxy)-2-(4-cyclopropanesulfonylphenyl)-N-(5-methylthiazol-2-yl)acetamide] | 6.82 | 95% |
| O=C(Nc1ncc(F)s1)C(OC1CCOCC1)c1ccc(S(=O)(=O)C2CC2)cc1 (stereo not shown) [Example A114, 2-(4-Cyclopropanesulfonyl-phenyl)-N-(5-fluoro-thiazol-2-yl)-2-(tetrahydro-pyran-4-yloxy)-acetamide] | 6.82 | 92% |
| O=C(Nc1nncs1)C(Oc1ccc(F)cc1F)c1ccc(S(=O)(=O)C2CC2)cc1 (stereo not shown) [Example A16, 2-(4-Cyclopropanesulfonylphenyl)-2-(2,4-difluorophenoxy)-N-[1,3,4]thiadiazol-2-yl-acetamide] | 5.15 | 90% |
| O=C(Nc1cc[nH]n1)C(Oc1ccc(Cl)cc1F)c1ccc(S(=O)(=O)C2CC2)cc1 (stereo not shown) [Example A45, 2-(4-Chloro-2-fluorophenoxy)-2-(4-cyclopropanesulfonylphenyl)-N-(1H-pyrazol-3-yl)acetamide] | 5.89 | 90% |

Now from value to molecule:

| pEC50 | Emax | SMILES |
| --- | --- | --- |
| < 5.00 | – | CCOc1sc(NC(=O)C(Oc2ccc(F)cc2F)c2ccc(S(=O)(=O)C3CC3)cc2)nc1CC(=O)O (stereo not shown) [Example B22, {2-[2-(4-Cyclopropanesulfonylphenyl)-2-(2,4-difluorophenoxy)acetylamino]-5-ethoxy-thiazol-4-yl}acetic acid] |
| 6.17 | 95% | O=C(O)Cc1nc(NC(=O)C(Oc2ccc(F)cc2F)c2ccc(S(=O)(=O)C3CCCCC3)cc2)sc1Cl (stereo not shown) [Example B15, {5-Chloro-2-[2-(4-cyclohexanesulfonylphenyl)-2-(2,4-difluorophenoxy)acetylamino]-thiazol-4-yl}acetic acid] |
| 6.55 | 90% | O=C(O)c1ccc(Oc2cnc(NC(=O)C(Oc3ccc(F)cc3F)c3ccc(S(=O)(=O)N4CCCCC4)cc3)s2)cc1 (stereo not shown) [Example B50, 4-(2-{2-(2,4-Difluoro-phenoxy)-2-[4-(piperidine-1-sulfonyl)-phenyl]-acetylamino}-thiazol-5-yloxy)-benzoic acid] |
| 6.37 | 90% | O=C(O)Cc1nc(NC(=O)C(Oc2ccc(F)cc2F)c2ccc(S(=O)(=O)N3CCCCC3)cc2)sc1Cl (single isomer, unassigned; (-)) [Example H3A, (−) (5-Chloro-2-{2-(2,4-difluoro-phenoxy)-2-[4-(piperidine-1-sulfonyl)-phenyl]-acetylamino}-thiazol-4-yl)-acetic acid] |
| 6.96 | 93% | O=C(Nc1ncc(Oc2ccc(C(=O)N3CCC3)cc2)s1)C(Oc1ccc(F)cc1F)c1ccc(S(=O)(=O)C2CC2)cc1 (single isomer, unassigned; (+)) [Example H6A, (+)N-{5-[4-(Azetidine-1-carbonyl)-phenoxy]-thiazol-2-yl}-2-(4-cyclopropanesulfonyl-phenyl)-2-(2,4-difluoro-phenoxy)-acetamide] |
| 7.66 | – | O=C(O)c1ccc(Oc2cnc(NC(=O)C(O[C@@H]3CCOC3)c3ccc(S(=O)(=O)C4CC4)cc3)s2)cc1 (single isomer, unassigned) [Example H9A] |
| 5.80 | 90% | O=C(O)Cc1csc(NC(=O)C(Oc2ccc(F)cc2F)c2ccc(S(=O)(=O)C3CCCC3)cc2)n1 (stereo not shown) [Example B14, {2-[2-(4-Cyclopentanesulfonylphenyl)-2-(2,4-difluorophenoxy)-acetylamino]-thiazol-4-yl}acetic acid] |
| < 5.00 | – | O=C(O)c1csc(NC(=O)C(Oc2ccc(Cl)cc2F)c2ccc(S(=O)(=O)C3CC3)cc2)n1 (stereo not shown) [Example B26, 2-[2-(4-Chloro-2-fluorophenoxy)-2-(4-cyclopropanesulfonylphenyl)acetylamino]thiazole-4-carboxylic acid] |
